Laboratory results published in ChEMBL document CHEMBL1122977, “A new class of cardiotonic agents: structure-activity correlations for natural and synthetic analogues of the alkaloid A new class of A new class of cardiotonic agents: structure-activity correlations for natural and synthetic analogues of the alkaloid pumiliotoxin B …” (J Med Chem, 1985).

Experiments:
Conditions in all cases: Cardiac atrium
Cavia porcellus [1] = organism: Cavia porcellus; assay: Effect on force of atrial contractions induced by PTX-B in guinea pig (control value); format: functional
Cavia porcellus [2] = organism: Cavia porcellus; assay: Effect on rate of atrial contractions induced by PTX-B in guinea pig (control value); format: functional, organism-based
Cavia porcellus [3] = organism: Cavia porcellus; assay: Effect on rate of atrial contractions induced by PTX-B in guinea pig; format: functional, organism-based
Cavia porcellus [4] = organism: Cavia porcellus; assay: Effect on force of atrial contractions induced by PTX-B in guinea pig; format: functional, organism-based

SMILES	IC50 (Cavia porcellus [1]) [µM]	IC50 (Cavia porcellus [2]) [µM]	IC50 (Cavia porcellus [3]) [µM]	IC50 (Cavia porcellus [4]) [µM]
COc1ccc(CCN(C)CCCC(C#N)(c2ccc(OC)c(OC)c2)C(C)C)cc1OC (stereo not drawn) [VERAPAMIL]	0.8	0.7	16	10
COC(=O)C1=C(C)NC(C)=C(C(=O)OC)C1c1ccccc1[N+](=O)[O-] [NIFEDIPINE]	0.4	0.6	12	6
